Key:
MCF-7 tumour = assay: In-vivo activity in a breast cancer model: nude mice grafted with MCF-7 cells, after onset of docetaxel resistance; conditions: docetaxel 9 mg/kg intravenously, 5 injections, mice bearing MCF-7 tumours
Procedure: Determination of in-vivo activity: In-vivo activity is tested in a breast cancer model: 7-week old nude female mice (Charles River Laboratories, n=15) were subcutaneously grafted with 5×10^6 MCF-7 cells 1 day after subcutaneous implantation of 0.72 mg of granules releasing 17β-estradiol (Innovative Research of America) for 60 days.
The mice are randomised, and treatment is initiated when the tumours reach a size of approximately 150 mm^3. The tumour volume (length×width×height×0.52) is measured at least twice a week and the therapeutic response is defined using solid tumour response criteria (RECIST).
Mice bearing MCF-7 tumours are injected intravenously with docetaxel, 9 mg/kg twice a week for a total of 5 injections.
The percentage of the regression values is calculated using the following formula:
where T=the tumour volume in the treated group, ΔT=the tumour volume in the treated group on the day of the study minus the tumour volume in the treated group on the initial day of administration, and Tinitial=the tumour volume in the treated group on the initial day of the administration The disease is considered to be progressing when the tumour size increases by >20%. Partial regression (PR) is defined as a reduction in tumour size >30%. […]

IGF-IR = IGF-IR (Homo sapiens, UniProt P08069); conditions: read-out: Kd of binding to IGF-IR; cited from earlier work
Sequence of IGF-IR (P08069 31-736 limits assumed): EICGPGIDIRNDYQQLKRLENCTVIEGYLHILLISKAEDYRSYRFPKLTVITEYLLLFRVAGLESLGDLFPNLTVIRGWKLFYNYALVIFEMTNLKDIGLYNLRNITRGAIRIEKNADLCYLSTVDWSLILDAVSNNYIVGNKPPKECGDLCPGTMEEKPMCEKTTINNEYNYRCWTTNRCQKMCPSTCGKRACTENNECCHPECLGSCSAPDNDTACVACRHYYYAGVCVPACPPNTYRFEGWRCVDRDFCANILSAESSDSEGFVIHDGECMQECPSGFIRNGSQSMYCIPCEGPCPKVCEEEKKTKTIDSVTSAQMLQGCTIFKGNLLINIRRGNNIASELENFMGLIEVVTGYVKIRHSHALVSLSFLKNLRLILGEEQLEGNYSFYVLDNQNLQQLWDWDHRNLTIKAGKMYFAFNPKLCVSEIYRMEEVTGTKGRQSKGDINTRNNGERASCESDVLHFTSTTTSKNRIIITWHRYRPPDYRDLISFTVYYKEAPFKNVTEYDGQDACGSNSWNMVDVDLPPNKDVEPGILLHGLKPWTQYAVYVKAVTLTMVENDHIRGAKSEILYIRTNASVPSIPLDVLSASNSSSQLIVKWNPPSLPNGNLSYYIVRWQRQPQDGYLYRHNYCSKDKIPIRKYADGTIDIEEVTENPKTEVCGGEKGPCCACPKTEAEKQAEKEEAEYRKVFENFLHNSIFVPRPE
Sequence of IGF-IR (P08069 741-1367 partner limits assumed): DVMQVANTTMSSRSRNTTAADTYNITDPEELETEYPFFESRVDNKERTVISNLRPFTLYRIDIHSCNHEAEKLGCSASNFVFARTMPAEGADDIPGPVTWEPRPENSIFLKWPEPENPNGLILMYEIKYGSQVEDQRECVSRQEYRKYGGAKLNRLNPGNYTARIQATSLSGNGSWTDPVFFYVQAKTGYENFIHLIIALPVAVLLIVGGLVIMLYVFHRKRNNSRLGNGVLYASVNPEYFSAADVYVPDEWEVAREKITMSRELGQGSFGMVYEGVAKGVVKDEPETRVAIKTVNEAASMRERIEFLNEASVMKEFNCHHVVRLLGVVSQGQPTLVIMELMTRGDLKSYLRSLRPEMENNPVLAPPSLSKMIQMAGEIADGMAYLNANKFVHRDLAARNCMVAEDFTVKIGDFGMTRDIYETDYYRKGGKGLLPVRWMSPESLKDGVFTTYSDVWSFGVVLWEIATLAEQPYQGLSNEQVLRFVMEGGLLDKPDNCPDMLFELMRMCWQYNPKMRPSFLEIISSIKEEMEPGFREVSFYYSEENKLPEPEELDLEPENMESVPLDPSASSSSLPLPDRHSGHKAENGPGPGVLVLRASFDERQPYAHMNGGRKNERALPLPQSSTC

Q: Which “time after which the tumours became resistant to docetaxel and relapsed” value (MCF-7 tumour) does the source give for CC(=O)O[C@@]12CO[C@@H]1C[C@H](O)[C@@]1(C)C(=O)[C@H](O)C3=C(C)[C@@H](OC(=O)[C@H](O)[C@@H](NC(=O)OC(C)(C)C)c4ccccc4)C[C@@](O)([C@@H](OC(=O)c4ccccc4)[C@H]21)C3(C)C [docetaxel] here?
A: Its value is 70 days.

Q: For IGF2: natural ligand bound by IGF-IR, which Kd (IGF-IR) is on record?
A: Its Kd is ~1 nM.
